Legend:
[1] = biological target: T1, NaV1.7 (Homo sapiens, UniProt Q15858); assay: Automated patch clamp (Qube 384), internal block of NaV1.7 in HEK293 cells; assay type: cell-based; conditions: compound in internal solution, read-out: NaV1.7 Intracellular Inhibition
T1 construct: expressed in transfected cells; host or cells: HEK293, tetracycline-inducible
Experimental: (§1) NaV1.7 was expressed in HEK293 cells upon induction with tetracycline. Cells were cultured in DMEM containing 10% dialyzed Fetal Bovine Serum (VWR, Radnor, Pa.), 1% Glutamax (VWR, Radnor, Pa.), 1% Penicillin-Streptomycin (VWR, Radnor, Pa.), 100 mg/L Hygromycin (Thermo Fisher Scientific, Waltham, Mass. and 5 mg/L Blasticidin (Alfa Aesar, Haverhill, Mass.). Cells were grown and maintained at 37° C. in a humidified environment containing 10% CO2 in air. Cells were detached from the culture flask for passage and harvested using 0.05% Trypsin-EDTA (Thermo Fisher Scientific, Waltham, Mass.). To induce NaV1.7, cells were induced with tetracycline (0.1-1 μg/mL, IBI Scientific, Peosta, Iowa) the day before recording.
(§2) Before experiments, cells were washed with DPBS (VWR, Radnor, Pa.), digested with Detachin (VWR Radnor, Pa.) and then triturated 10 times in CHO Serum-Free Media (VWR Radnor, Pa.) to resuspend the cells and to break apart cell aggregates. Cells were counted and the final concentration was set at 2-5 million cells per mL.
(§3) The intracellular solution contained the following: 140 mM CsF, 1 mM/5 mM EGTA/CsOH, 10 mM HEPES, 10 mM NaCl, adjusted to pH 7.3 with CsOH, and osmolality to 320 with sucrose. The external solution contained the following: 145 mM NaCl, 4 mM KCl, 1 mM MgCl2, 2 mM CaCl2, 10 mM HEPES, 10 mM Glucose, adjusted to pH 7.4 with CsOH and osmolality to 305 with sucrose. All chemicals are from Sigma-Aldrich, St. Louis, Mo. In order to test the degree of internal block by test compounds, the compounds were dissolved in internal solution at the indicated test concentration. […] In order to test the degree of external block by test compounds the compounds were dissolved in external solution at the indicated test concentration.
(§4) Automated Patch Clamps were performed on Qube 384 (Sophion Bioscience, Woburn Mass.) with multihole Qchips at a temperature setting of 22 degrees. The whole cells configuration was formed with default Qube seal and break-in parameter. The membrane potential was held at −100 mV before the voltage protocol began. Two voltage protocols were followed.
(§5) Step 1: Cells were held at −100 mV with a depolarized pulse to −20 mV for 10 ms, the interval was set at 5 s. Currents were corrected by default leak subtraction from every pulse. The duration was set at 5 mins.
(§6) Step 2: Cells were held at −100 mV with a depolarized pulse to −20 mV for 10 ms. The frequency was 5 Hz. Currents were corrected by leak subtraction calculated before step 2. The duration was set at 4 mins.
After Step 2, the Qchip was removed from the recording chamber. The internal solution was changed with solutions containing test compounds. Qchips were held at −100 mV without pulsing after being replaced in the recording chamber. The total solution switching time was 8 minutes. After the internal solution exchange, Cells were recorded and step 2 for repeated for 10 minutes.
Data analysis was performed by Sophion Analyzer. Cells were filtered with minimum 50 MOhm seal resistance and minimum 5 nA starting current. The rundown of the currents was corrected with control cells (Non-Drug). The remaining was calculated by averaging last 3 points in the end of experiments. The base line was calculated as the average of last 3 points of Step 2. IC50 curves were plotted with DR-plots/Hill function (a dose-response plot with a Hill fit).
Representative examples of the invention were tested for intracellular inhibition of NaV 1.7 in the automated patch clamp assay. Activity Range is reported as IC50: “++++” (<1 μM), “+++” (1-3 μM), “++” (3-10 μM) or “+” (10-30 μM).

[2] = biological target: T1, NaV1.7; assay: Automated patch clamp (Qube 384), external block of NaV1.7 in HEK293 cells; assay type: cell-based; conditions: compound in external solution, read-out: NaV1.7 Extracellular Inhibition
Experimental: as §1, §2, §3, §4, §5, §6
After Step 2, the external solution was changed with solutions containing test compounds. Qchips were held at −100 mV without pulsing. The total solution switching time was 8 minutes. After the external solution exchange, cells were recorded using the same procedure as step 2 for 10 minutes.
Data analysis was performed by Sophion Analyzer. Data were corrected with control cells (Non-Drug). The IC50 data were plotted with DR-plots/Hill function (a dose-response plot with a Hill fit).
Representative examples of the invention were tested for extracellular inhibition of NaV 1.7 in the automated patch clamp assay. Activity Range is reported as IC50: “++++” (<1 μM), “+++” (1-10 μM), “++” (10-30 μM) or “+” (>30 μM).

T1 sequence (Q15858 whole entry): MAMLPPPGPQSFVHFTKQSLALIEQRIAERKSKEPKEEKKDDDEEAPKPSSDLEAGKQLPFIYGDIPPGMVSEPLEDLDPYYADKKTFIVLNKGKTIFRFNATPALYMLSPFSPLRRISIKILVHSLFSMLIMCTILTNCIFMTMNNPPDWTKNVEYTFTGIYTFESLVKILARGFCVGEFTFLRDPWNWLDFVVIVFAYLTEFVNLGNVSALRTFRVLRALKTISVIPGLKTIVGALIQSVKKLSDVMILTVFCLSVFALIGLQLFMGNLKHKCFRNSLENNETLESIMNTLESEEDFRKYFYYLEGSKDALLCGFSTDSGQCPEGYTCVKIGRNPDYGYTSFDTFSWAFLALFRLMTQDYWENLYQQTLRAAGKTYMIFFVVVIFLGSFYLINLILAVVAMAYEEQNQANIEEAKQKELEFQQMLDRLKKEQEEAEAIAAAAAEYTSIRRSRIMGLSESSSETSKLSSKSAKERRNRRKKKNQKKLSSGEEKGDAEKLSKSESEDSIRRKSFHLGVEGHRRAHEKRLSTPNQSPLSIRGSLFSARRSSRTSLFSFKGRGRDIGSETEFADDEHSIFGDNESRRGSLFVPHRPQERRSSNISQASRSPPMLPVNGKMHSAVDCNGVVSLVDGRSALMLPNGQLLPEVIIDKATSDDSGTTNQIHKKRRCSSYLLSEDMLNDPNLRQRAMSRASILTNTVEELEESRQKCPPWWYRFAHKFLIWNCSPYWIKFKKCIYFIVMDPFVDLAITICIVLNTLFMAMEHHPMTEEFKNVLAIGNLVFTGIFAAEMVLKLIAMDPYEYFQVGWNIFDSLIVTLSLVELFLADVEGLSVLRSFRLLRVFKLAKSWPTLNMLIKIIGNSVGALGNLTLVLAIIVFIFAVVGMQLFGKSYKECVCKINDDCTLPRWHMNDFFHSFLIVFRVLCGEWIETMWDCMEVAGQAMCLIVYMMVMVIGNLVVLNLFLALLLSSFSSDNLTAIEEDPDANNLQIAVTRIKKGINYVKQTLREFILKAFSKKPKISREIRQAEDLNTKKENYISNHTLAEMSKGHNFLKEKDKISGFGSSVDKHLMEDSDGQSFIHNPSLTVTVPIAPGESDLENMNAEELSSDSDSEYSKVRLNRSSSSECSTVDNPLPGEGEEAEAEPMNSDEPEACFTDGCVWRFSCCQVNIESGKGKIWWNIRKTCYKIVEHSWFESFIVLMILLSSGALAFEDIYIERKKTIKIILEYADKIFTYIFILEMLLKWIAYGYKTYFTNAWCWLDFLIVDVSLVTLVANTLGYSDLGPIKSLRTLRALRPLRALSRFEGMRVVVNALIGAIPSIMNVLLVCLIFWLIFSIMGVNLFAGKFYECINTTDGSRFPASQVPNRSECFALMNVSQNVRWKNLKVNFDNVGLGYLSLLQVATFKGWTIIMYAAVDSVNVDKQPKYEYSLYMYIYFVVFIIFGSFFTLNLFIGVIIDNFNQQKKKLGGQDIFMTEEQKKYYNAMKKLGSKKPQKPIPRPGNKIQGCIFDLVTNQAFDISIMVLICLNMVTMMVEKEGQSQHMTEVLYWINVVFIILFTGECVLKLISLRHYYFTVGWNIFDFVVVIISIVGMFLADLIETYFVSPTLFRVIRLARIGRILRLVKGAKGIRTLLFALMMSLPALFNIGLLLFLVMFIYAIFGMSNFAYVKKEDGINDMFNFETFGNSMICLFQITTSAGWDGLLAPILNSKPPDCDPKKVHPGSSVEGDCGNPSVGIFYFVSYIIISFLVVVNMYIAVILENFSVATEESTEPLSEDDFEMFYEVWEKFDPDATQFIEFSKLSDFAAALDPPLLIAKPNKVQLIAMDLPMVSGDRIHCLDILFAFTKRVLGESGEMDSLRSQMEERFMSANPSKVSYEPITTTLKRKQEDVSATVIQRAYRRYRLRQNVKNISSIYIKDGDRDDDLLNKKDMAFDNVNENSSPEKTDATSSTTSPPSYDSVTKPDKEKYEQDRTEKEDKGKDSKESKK

With CC[N+]1(CC(=O)Nc2c(C)cccc2C(=O)OC)CCCC(C(=O)NC2CCCCC2)C1.[I-] (stereo not shown) [Compound 56] as the molecule, how does the IC50 [1] read?
The IC50 was 1000 to 3000 nM.

How did the IC50 [1] turn out when COC(=O)c1cccc(C)c1NC(=O)C[N+]1(Cc2ccccc2)CCCC(C(=O)N2CCCC2)C1 (mixture of isomers) [Compound 43] was run?
Its IC50 is 1000 to 3000 nM.

How did the IC50 [1] turn out when CCNC(=O)C1CCC[N+](CC(=O)Nc2c(C)cccc2C(=O)OC)(Cc2ccccc2)C1.O=C([O-])C(F)(F)F (stereo not shown) [Compound 33] was run?
Its IC50 is under 1000 nM.

Which results are given for CCOC(=O)c1cccc(C)c1NC(=O)C[N+]1(Cc2ccccc2)CCCC1.[Br-] [Compound 9]?
IC50 [2]: 1000 to 10000 nM; IC50 [1]: < 1000 nM

With COC(=O)c1cccc(C)c1NC(=O)C[N+]1(Cc2ccccc2)CCCC(C(=O)NC2CCCC2)C1.[Br-] (stereo not shown) [Compound 41] as the molecule, how does the IC50 [1] read?
Its IC50 is 1000 to 3000 nM.

With CCOC(=O)c1cccc(C)c1NC(=O)C[n+]1cccc(-c2ccccc2)c1 [Compound 67] as the molecule, how does the IC50 [1] read?
The IC50 was under 1000 nM.

Which results are given for COC(=O)c1cccc(C)c1NC(=O)C[N+]1(Cc2ccccc2)CCCCCC1 [Compound 1]?
IC50 [2]: 1000 to 10000 nM; IC50 [1]: < 1000 nM

How did the IC50 [1] turn out when CCCCOC(=O)C1CCC[N+](CC)(CC(=O)Nc2c(C)cccc2C(=O)OC)C1.[I-] (mixture of isomers) [Compound 15] was run?
Its IC50 is 1000 to 3000 nM.

For COC(=O)c1cccc(C)c1NC(=O)C[N+]1(Cc2ccccc2)CCCC(C(=O)N2CCCCCC2)C1.[Br-] (stereo not shown) [Compound 34], which IC50 [1] is on record?
Its IC50 is 1000 to 3000 nM.

Which results are given for CC[N+]1(CC(=O)Nc2c(C)cccc2C(=O)OC)CCCC(c2ccccc2)C1 (mixture of isomers) [Compound 65]?
IC50 [2]: 10000 to 30000 nM; IC50 [1]: < 1000 nM

With CC[N+]1(CC(=O)Nc2c(C)cccc2C(=O)OC)CCCC(C(=O)NC)C1.[I-] (stereo not shown) [Compound 46] as the molecule, how does the IC50 [1] read?
Its IC50 is 3000 to 10000 nM.

How did the IC50 [2] turn out when COC(=O)c1cccc(C)c1NC(=O)C[n+]1cccn1C1CCCCC1.[Br-] [Compound 69] was run?
Its IC50 is over 30000 nM.

What about the IC50 [1] of the same molecule?
The IC50 was under 1000 nM.

CC[N+]1(CC(=O)Nc2c(C)cccc2C(=O)OC)CCCC(C(=O)N2CCCCC2)C1.[I-] (stereo not shown) [Compound 45] was tested. Which IC50 [2] did it give?
Its IC50 is over 30000 nM.

And the IC50 [1]?
The IC50 was under 1000 nM.

Which results are given for Cc1cccc(C(=O)OC(C)(C)C)c1NC(=O)C[n+]1cccc(-c2ccccc2)c1.[Br-] [Compound 71]?
IC50 [2]: 1000 to 10000 nM; IC50 [1]: 1000 to 3000 nM

Which IC50 [2] does the source give for COC(=O)c1cccc(C)c1NC(=O)C[N+]1(Cc2ccccc2)CCCC(C(=O)NC(C)C)C1.[Br-] (stereo not shown) [Compound 32] here?
The IC50 was over 30000 nM.

What about the IC50 [1] of the same molecule?
Its IC50 is under 1000 nM.

With COC(=O)c1cccc(C)c1NC(=O)C[N+]1(CC(=O)N(C)C)CCCC(c2ccccc2)C1.O=C([O-])C(F)(F)F (stereo not shown) [Compound 60] as the molecule, how does the IC50 [1] read?
Its IC50 is under 1000 nM.

For CCc1cccc(C[N+]2(C(CC)C(=O)Nc3c(C)cccc3C(=O)OC)CCCCC2)c1.O=C[O-] (stereo not shown) [Compound 58], which IC50 [1] is on record?
Its IC50 is 3000 to 10000 nM.

With CCOC(=O)C[N+]1(CC(=O)Nc2c(C)cccc2C(=O)OC)CCCC(c2ccccc2)C1.O=C([O-])C(F)(F)F (stereo not shown) [Compound 63] as the molecule, how does the IC50 [2] read?
The IC50 was 1000 to 10000 nM.

What about the IC50 [1] of the same molecule?
The IC50 was under 1000 nM.

How did the IC50 [2] turn out when Cc1cccc(C(=O)OC(C)C)c1NC(=O)C[N+]1(Cc2ccccc2)CCCCCC1.[Br-] [Compound 7] was run?
The IC50 was 1000 to 10000 nM.

What about the IC50 [1] of the same molecule?
The IC50 was under 1000 nM.

CCC(C(=O)Nc1c(C)cccc1C(=O)OC)[N+]1(Cc2ccccc2)CCCCC1 (stereo not shown) [Compound 57] was tested. Which IC50 [2] did it give?
Its IC50 is over 30000 nM.

And the IC50 [1]?
The IC50 was 1000 to 3000 nM.

With COC(=O)c1cccc(C)c1NC(=O)C[N+]1(Cc2ccccc2)CCCC(C(=O)NCC(C)C)C1.[Br-] (stereo not shown) [Compound 36] as the molecule, how does the IC50 [2] read?
Its IC50 is 10000 to 30000 nM.

And the IC50 [1]?
The IC50 was 1000 to 3000 nM.

Cc1cccc(C(=O)OC(C)(C)C)c1NC(=O)C[n+]1cccn1C1CCCCC1.[Br-] [Compound 72] was tested. Which IC50 [2] did it give?
The IC50 was 1000 to 10000 nM.

And the IC50 [1]?
Its IC50 is 1000 to 3000 nM.

Reference: patent US10927096B2, “Ester substituted ion channel blockers and methods for use” (Nocion Therapeutics, Inc., priority 2019, dated 2021)
